The values below come from US20030134883A1, “14-Methyl-epothilones” (priority 2001, published 2003).

The subject of data set [1] is H460 cancer cell line. Nature of the data set: Cytotoxicity in cell culture (FIG. 3), H460. It counts as cell-based. To be noted: H460 cells, in vitro.
The subject of data set [2] is SF cancer cell line. The data set is described as follows: Cytotoxicity in cell culture (FIG. 3), SF. The note with it: SF cells, in vitro. The data set is classed as cell-based.
In data set [3] the test system is NCI-ADR cancer cell line. Nature of the data set: Cytotoxicity in cell culture (FIG. 3), NCI-ADR. It counts as cell-based. The note with it: NCI-ADR cells, in vitro.
Data set [4] has as its system MCF-7 cancer cell line. The data set is described as follows: Cytotoxicity in cell culture (FIG. 3), MCF-7. It counts as cell-based. The note with it: MCF-7 cells, in vitro.
A short description of data set [5]: Body weight of treated nude mice with MX-1 xenograft (FIG. 2). It counts as in vivo. To be noted: infusion twice daily for five days; during the course of treatment.
The test system of data set [6] is MX-1 tumor xenograft. Nature of the data set: MX-1 tumor xenograft in nude mice, tumor size (FIG. 1). It counts as in vivo. To be noted: infusion twice daily for five days; compared with control (pharmaceutical carrier only).

Consider `C/C(=C\c1csc(C)n1)[C@H]1OC(=O)C[C@H](O)C(C)(C)C(=O)[C@H](C)[C@@H](O)[C@@H](C)CCC[C@@]2(C)O[C@H]2[C@H]1C` [(14S)-14-methylepothilone B], for which the cytotoxicity result in data set [1], in data set [2], in data set [3] and in data set [4] was “essentially inactive” throughout.

As for `C/C1=C/[C@@H](C)[C@@H](/C(C)=C/c2csc(C)n2)OC(=O)C[C@H](O)C(C)(C)C(=O)[C@H](C)[C@@H](O)[C@@H](C)CCC1` [(14R)-14-methylepothilone D], the cytotoxicity result in data set [1], in data set [2], in data set [3] and in data set [4] was “essentially inactive” throughout.

`C/C(=C\c1csc(C)n1)[C@H]1OC(=O)C[C@H](O)C(C)(C)C(=O)[C@H](C)[C@@H](O)[C@@H](C)CCC[C@@]2(C)O[C@H]2[C@@H]1C` [(14R)-14-methylepothilone B]: the cytotoxicity entry in data set [1], in data set [2], in data set [3] and in data set [4] was “cytotoxic” throughout.

On to `C/C1=C/[C@H](C)[C@@H](/C(C)=C/c2csc(C)n2)OC(=O)C[C@H](O)C(C)(C)C(=O)[C@H](C)[C@@H](O)[C@@H](C)CCC1` [(14S)-14-methylepothilone D], for which the cytotoxicity result in data set [1], in data set [2], in data set [3] and in data set [4] was “cytotoxic” throughout. Also, the body weight result in data set [5] is listed as “slight decrease in body weight”. Moreover, the “rate of tumor growth as measured by the tumor size” value in data set [6] is “decrease in the rate of tumor growth”.
